Where two headings read alike, the source gives them in different places. *1 amine or outer side, *2 acyl side, *3 side chain or, on linkers, in order; H or OH if unused. Where a SMILES comes first, the peptide text is derived from it. Bridges are numbered along the chain shown (N, C = ends). [ ]: non-standard residue; d: D form. PEG12 = NCCOCCOCCOCCOCCOCCOCCOCCOCCOCCOCCOCCOCCC(=O)O; X5 = O=C([C@H](Cc1cn(CCO)c2ccccc12)N[*:1])[*:2]; NMePhe(3-Cl) = CN[C@@H](Cc1cccc(Cl)c1)C(=O)O; NMeW = CN[C@@H](Cc1c[nH]c2ccccc12)C(=O)O; NMeY = CN[C@@H](Cc1ccc(O)cc1)C(=O)O; NMeF = CN[C@@H](Cc1ccccc1)C(=O)O; Ahp(2) = CCCCC[C@H](N)C(=O)O; PEG4 = NCCOCCOCCOCCOCCC(=O)O; hLys = NCCCCC[C@H](N)C(=O)O; Aib = CC(C)(N)C(=O)O Bounds are passed on as bounds.

14 molecules from US20230203098A1, “HUMAN TRANSFERRIN RECEPTOR BINDING PEPTIDE” (priority 2020, published 2023) can be followed below.

For this assay, the target named is transferrin receptor (hTfR) (Homo sapiens, UniProt P02786). Kind of assay: Intermolecular interaction evaluation test between transferrin receptor (hTfR) and peptide by surface plasmon resonance (SPR). The class given is binding. The essentials: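 hTfR captured on Ni-NTA chip then amine-coupled; peptides run single-cycle kinetics at 5–100 nM in 10 mM HEPES pH 8.0, 150 mM NaCl, 0.05% Tween 20, 0.1% BSA, 1.0% DMSO. KD from least-squares curve fitting of sensorgrams.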
On the technique in general: In SPR one partner is held on a chip, and binding of the other changes the refractive index at the surface.

Where [1] appears, read: binding to hTfR by SPR, Table 2 peptides, read-out: KD value (SPR) class.
Where [2] appears, read: surface plasmon resonance, peptide vs hTfR, read-out: KD value, hTfR binding by SPR (class symbol).
Where [3] appears, read: SPR, hTfR No. 894 variants with PEG12c linker (Table 2), read-out: KD.
The mark [4] stands for this setting: surface plasmon resonance, hTfR, read-out: KD value for hTfR by SPR (class symbol).

Sequence of transferrin receptor (hTfR) (P02786 whole entry): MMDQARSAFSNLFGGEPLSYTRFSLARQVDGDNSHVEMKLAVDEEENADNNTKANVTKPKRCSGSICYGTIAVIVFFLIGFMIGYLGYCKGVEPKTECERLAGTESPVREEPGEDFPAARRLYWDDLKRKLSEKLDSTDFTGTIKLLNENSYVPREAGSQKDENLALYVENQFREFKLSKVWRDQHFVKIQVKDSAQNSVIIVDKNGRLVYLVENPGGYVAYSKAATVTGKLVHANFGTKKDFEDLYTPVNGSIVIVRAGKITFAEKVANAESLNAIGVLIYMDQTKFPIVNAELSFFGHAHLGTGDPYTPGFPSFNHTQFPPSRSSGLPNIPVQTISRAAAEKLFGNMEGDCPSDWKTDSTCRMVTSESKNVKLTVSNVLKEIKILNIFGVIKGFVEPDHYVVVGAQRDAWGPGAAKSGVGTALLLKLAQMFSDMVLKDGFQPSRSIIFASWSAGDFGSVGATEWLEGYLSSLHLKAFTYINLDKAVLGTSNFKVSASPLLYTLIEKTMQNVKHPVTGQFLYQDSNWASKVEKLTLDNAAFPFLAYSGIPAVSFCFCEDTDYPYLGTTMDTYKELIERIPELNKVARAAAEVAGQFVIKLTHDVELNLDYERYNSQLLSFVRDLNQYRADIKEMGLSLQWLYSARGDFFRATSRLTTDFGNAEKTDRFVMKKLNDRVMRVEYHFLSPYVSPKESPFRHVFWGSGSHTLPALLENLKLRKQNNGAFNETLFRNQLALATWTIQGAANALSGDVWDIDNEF

For orientation: Kd means the equilibrium constant for the complex coming apart. For `CC[C@H](C)[C@@H]1NC(=O)[C@H](Cc2ccc(OC)cc2)NC(=O)[C@H](Cc2ccc(O)cc2)NC(=O)[C@H](CC(N)=O)NC(=O)[C@H](Cc2c[nH]c3ccccc23)N(C)C(=O)[C@H](C(C)C)NC(=O)[C@H](Cc2cccc(Cl)c2)N(C)C(=O)[C@H](CCC(=O)N[C@H](CCC(=O)O)C(=O)O)NC(=O)[C@H](C)NC(=O)CSC[C@@H](C(N)=O)NC(=O)[C@H](Cc2ccc(O)cc2)N(C)C(=O)[C@H](Cc2ccccc2)NC(=O)[C@@H](CCCNC(=N)N)NC(=O)[C@H](CCCNC(=N)N)NC(=O)[C@H]([C@@H](C)CC)NC1=O` [compound 241], the equilibrium dissociation constant (Kd) under setting [1] is 1 to 100 nM.
Consider `CC[C@H](C)[C@@H]1NC(=O)[C@H](Cc2ccc(OC)cc2)NC(=O)[C@H](Cc2ccc(O)cc2)NC(=O)[C@H](CC(N)=O)NC(=O)[C@H](Cc2c[nH]c3ccccc23)N(C)C(=O)[C@H](C(C)C)NC(=O)[C@H](Cc2cccc(Cl)c2)N(C)C(=O)[C@H](C(C)C)NC(=O)[C@H](C)NC(=O)CSC[C@@H](C(=O)NCCOCCOCCOCCOCCC(N)=O)NC(=O)[C@H](Cc2ccc(O)cc2)N(C)C(=O)[C@H](Cc2ccccc2)NC(=O)[C@@H](CCCNC(=N)N)NC(=O)[C@H](CCCNC(=N)N)NC(=O)[C@H](CCCCCN)NC1=O` [compound 339] ({CH2CO}-AV[NMePhe(3-Cl)]V[NMeW]NYY(Me)I[hLys]R[dR]F[NMeY]C[PEG4]-NH2; thioether N-15), for which, under setting [2], the equilibrium dissociation constant (Kd) fell in the range of 1 to 100 nM.
Regarding `CC[C@H](C)[C@@H]1NC(=O)[C@H]([C@@H](C)CC)NC(=O)[C@H](Cc2ccc(O)cc2)N(C)C(=O)[C@H](Cc2ccc(O)cc2)NC(=O)[C@H](CC(N)=O)NC(=O)[C@H](Cc2c[nH]c3ccccc23)NC(=O)[C@H](C(C)C)NC(=O)[C@H](Cc2ccccc2)N(C)C(=O)[C@H](C(C)C)NC(=O)[C@H](C)NC(=O)CSC[C@@H](C(=O)NCCOCCOCCOCCOCCOCCOCCOCCOCCOCCOCCOCCOCCC(N)=O)NC(=O)[C@H](Cc2ccc(O)cc2)N(C)C(=O)[C@H](Cc2ccc(O)cc2)NC(=O)[C@H](CCCNC(=N)N)NC(=O)[C@H](CCCNC(=N)N)NC1=O` [compound 120], the Kd under setting [3] lay within 1 to 100 nM.
Same read-out and setting: the same measure for `CC[C@H](C)[C@@H]1NC(=O)[C@H](Cc2ccc(O)cc2)NC(=O)[C@H](C)NC(=O)[C@H](CC(N)=O)NC(=O)[C@H](Cc2c[nH]c3ccccc23)NC(=O)[C@H](C(C)C)NC(=O)[C@H](Cc2ccccc2)N(C)C(=O)[C@H](C(C)C)NC(=O)[C@H](C)NC(=O)CSC[C@@H](C(=O)NCCOCCOCCOCCOCCOCCOCCOCCOCCOCCOCCOCCOCCC(N)=O)NC(=O)[C@H](Cc2ccc(O)cc2)N(C)C(=O)[C@H](Cc2ccc(O)cc2)NC(=O)[C@H](CCCNC(=N)N)NC(=O)[C@H](CCCNC(=N)N)NC(=O)[C@H]([C@@H](C)CC)NC1=O` [compound 140] ({CH2CO}-AV[NMeF]VWNAYIIRRY[NMeY]C[PEG12]-NH2; thioether N-15): 1 to 100 nM.
`CC[C@H](C)[C@@H]1NC(=O)[C@H](Cc2ccc(OC)cc2)NC(=O)[C@H](Cc2ccc(O)cc2)NC(=O)[C@H](CC(N)=O)NC(=O)[C@H](Cc2c[nH]c3ccccc23)N(C)C(=O)[C@H](C(C)C)NC(=O)[C@H](Cc2cccc(Cl)c2)N(C)C(=O)[C@H](C(C)C)NC(=O)[C@H](C)NC(=O)CSC[C@@H](C(=O)N[C@H](CCC(=O)O)C(=O)N(C)CC(=O)N[C@H](CCC(=O)O)C(N)=O)NC(=O)[C@H](Cc2ccc(O)cc2)N(C)C(=O)[C@H](Cc2ccccc2)NC(=O)[C@@H](CCCNC(=N)N)NC(=O)C(C)(C)NC(=O)[C@H]([C@@H](C)CC)NC1=O` [compound 357]: the Kd under setting [4] lay within 1 to 100 nM.
Same read-out and setting: under `CC[C@H](C)[C@@H]1NC(=O)[C@H](Cc2ccc(OC)cc2)NC(=O)[C@H](Cc2ccc(O)cc2)NC(=O)[C@H](CC(N)=O)NC(=O)[C@H](Cc2c[nH]c3ccccc23)N(C)C(=O)[C@H](C(C)C)NC(=O)[C@H](Cc2cccc(Cl)c2)N(C)C(=O)[C@H](C(C)C)NC(=O)[C@H](C)NC(=O)CSC[C@@H](C(N)=O)NC(=O)[C@H](Cc2ccc(O)cc2)N(C)C(=O)[C@H](Cc2cccc(Cl)c2)NC(=O)[C@@H](CCCNC(=N)N)NC(=O)[C@H](CCCNC(=N)N)NC(=O)[C@H]([C@@H](C)CC)NC1=O` [compound 393] stands 1 to 100 nM.
As for `CC[C@H](C)[C@@H]1NC(=O)[C@H](Cc2ccc(O)cc2)NC(=O)[C@H](Cc2ccc(O)cc2)NC(=O)[C@H](CC(N)=O)NC(=O)[C@H](Cc2c[nH]c3ccccc23)NC(=O)[C@H](C(C)C)NC(=O)[C@H](Cc2ccccc2)N(C)C(=O)[C@H](C(C)C)NC(=O)[C@H](C)NC(=O)CSC[C@@H](C(=O)NCCOCCOCCOCCOCCC(=O)N[C@H](CCCCNC(=O)c2ccc(-c3c4ccc(=O)cc-4oc4cc(O)ccc34)c(C(=O)O)c2)C(N)=O)NC(=O)[C@H](Cc2ccc(O)cc2)N(C)C(=O)[C@H](Cc2ccc(O)cc2)NC(=O)[C@H](CCCNC(=N)N)NC(=O)[C@H](CCCNC(=N)N)NC(=O)[C@H]([C@@H](C)CC)NC1=O` [compound 446], the Kd (surface plasmon resonance, peptide vs hTfR, read-out: KD value for hTfR by SPR (class symbol)) is under 1 nM.
As for `CC[C@H](C)[C@@H]1NC(=O)[C@H](Cc2ccc(OC)cc2)NC(=O)[C@H](Cc2ccc(O)cc2)NC(=O)[C@H](CC(N)=O)NC(=O)[C@H](Cc2cn(CCO)c3ccccc23)NC(=O)[C@H](C(C)C)NC(=O)[C@H](Cc2cccc(Cl)c2)N(C)C(=O)[C@H](C(C)C)NC(=O)[C@H](C)NC(=O)CSC[C@@H](C(N)=O)NC(=O)[C@H](Cc2ccc(O)cc2)N(C)C(=O)[C@H](Cc2ccccc2)NC(=O)[C@@H](CCCNC(=N)N)NC(=O)C(C)(C)NC(=O)[C@H]([C@@H](C)CC)NC1=O` [compound 305] ({CH2CO}-AV[NMePhe(3-Cl)]V[X5]NYY(Me)II[Aib][dR]F[NMeY]C-NH2; thioether N-15), the equilibrium dissociation constant (Kd) under setting [2] lay within 100 to 1000 nM.
As for `CCCCC[C@@H]1NC(=O)[C@H](C)NC(=O)CSC[C@@H](C(=O)NCCOCCOCCOCCOCCOCCOCCOCCOCCOCCOCCOCCOCCC(N)=O)NC(=O)[C@H](Cc2ccc(O)cc2)N(C)C(=O)[C@H](Cc2ccc(O)cc2)NC(=O)[C@H](CCCNC(=N)N)NC(=O)[C@H](CCCNC(=N)N)NC(=O)[C@H]([C@@H](C)CC)NC(=O)[C@H]([C@@H](C)CC)NC(=O)[C@H](Cc2ccc(O)cc2)NC(=O)[C@H](Cc2ccc(O)cc2)NC(=O)[C@H](CC(N)=O)NC(=O)[C@H](Cc2c[nH]c3ccccc23)NC(=O)[C@H](C(C)C)NC(=O)[C@H](Cc2ccccc2)N(C)C1=O` [compound 130] ({CH2CO}-A[Ahp(2)][NMeF]VWNYYIIRRY[NMeY]C[PEG12]-NH2; thioether N-15), the Kd under setting [3] is 1 to 100 nM.
Regarding `CC[C@H](C)[C@@H]1NC(=O)[C@H](Cc2ccc(O)cc2)NC(=O)[C@H](Cc2ccc(O)cc2)NC(=O)[C@H](CC(N)=O)NC(=O)[C@H](Cc2c[nH]c3ccc(F)cc23)NC(=O)[C@H](C(C)C)NC(=O)[C@H](Cc2ccccc2)N(C)C(=O)[C@H](C(C)C)NC(=O)[C@H](C)NC(=O)CSC[C@@H](C(N)=O)NC(=O)[C@H](Cc2ccc(O)cc2)N(C)C(=O)[C@H](Cc2ccc(O)cc2)NC(=O)[C@H](CCCNC(=N)N)NC(=O)[C@H](CCCNC(=N)N)NC(=O)[C@H]([C@@H](C)CC)NC1=O` [compound 269], under setting [1], the Kd was in the range of 1 to 100 nM.
Regarding `CC[C@H](C)[C@@H]1NC(=O)[C@H](Cc2ccc(OC)cc2)NC(=O)[C@H](Cc2ccc(O)cc2)NC(=O)[C@H](CC(N)=O)NC(=O)[C@H](Cc2cn(CC(=O)O)c3ccccc23)NC(=O)[C@H](C(C)C)NC(=O)[C@H](Cc2cccc(Cl)c2)N(C)C(=O)[C@H](C(C)C)NC(=O)[C@H](C)NC(=O)CSC[C@@H](C(N)=O)NC(=O)[C@H](Cc2ccc(O)cc2)N(C)C(=O)[C@H](Cc2ccccc2)NC(=O)[C@@H](CCCNC(=N)N)NC(=O)C(C)(C)NC(=O)[C@H]([C@@H](C)CC)NC1=O` [compound 303], the Kd under setting [2] was 1 to 100 nM.
In the case of `CC[C@H](C)[C@@H]1NC(=O)[C@H](Cc2ccc(OC)cc2)NC(=O)[C@H](Cc2ccc(O)cc2)NC(=O)[C@H](CC(N)=O)NC(=O)[C@H](Cc2c[nH]c3ccccc23)N(C)C(=O)[C@H](C(C)C)NC(=O)[C@H](Cc2cccc(Cl)c2)N(C)C(=O)[C@H](C(C)C)NC(=O)[C@H](CCC(=O)O)NC(=O)CSC[C@@H](C(N)=O)NC(=O)[C@H](Cc2ccc(O)cc2)N(C)C(=O)[C@H](Cc2ccccc2)NC(=O)[C@H](CCCNC(=N)N)NC(=O)[C@H](CCCNC(=N)N)NC(=O)[C@H]([C@@H](C)CC)NC1=O` [compound 217], for the setting “SPR, peptides, linker-added peptides and FITC conjugates, Patent ID 203-230, read-out: KD”, the Kd was in the range of 1 to 100 nM.
Consider `CC[C@H](C)[C@@H]1NC(=O)[C@H](Cc2ccc(O)cc2)NC(=O)[C@H](Cc2ccccc2)NC(=O)[C@H](CC(N)=O)NC(=O)[C@H](Cc2c[nH]c3ccccc23)NC(=O)[C@H](C(C)C)NC(=O)[C@H](Cc2ccccc2)N(C)C(=O)[C@H](C(C)C)NC(=O)[C@H](C)NC(=O)CSC[C@@H](C(=O)NCCOCCOCCOCCOCCOCCOCCOCCOCCOCCOCCOCCOCCC(N)=O)NC(=O)[C@H](Cc2ccc(O)cc2)N(C)C(=O)[C@H](Cc2ccc(O)cc2)NC(=O)[C@H](CCCNC(=N)N)NC(=O)[C@H](CCCNC(=N)N)NC(=O)[C@H]([C@@H](C)CC)NC1=O` [compound 135] ({CH2CO}-AV[NMeF]VWNFYIIRRY[NMeY]C[PEG12]-NH2; thioether N-15), for which the equilibrium dissociation constant (Kd) under setting [3] lay within 1 to 100 nM.
Still for that read-out and setting: under `CC[C@H](C)[C@@H]1NC(=O)[C@H](Cc2ccc(O)cc2)NC(=O)[C@H](Cc2ccc(O)cc2)NC(=O)[C@H](CC(N)=O)NC(=O)[C@H](Cc2c[nH]c3ccccc23)NC(=O)[C@H](C(C)C)NC(=O)[C@H](Cc2ccccc2)N(C)C(=O)[C@H](C(C)C)NC(=O)[C@H](C)NC(=O)CSC[C@@H](C(=O)NCCOCCOCCOCCOCCOCCOCCOCCOCCOCCOCCOCCOCCC(N)=O)NC(=O)[C@H](Cc2ccc(O)cc2)N(C)C(=O)[C@H](Cc2ccc(O)cc2)NC(=O)[C@H](CCCNC(=N)N)NC(=O)[C@H](CCCNC(=N)N)N(C)C(=O)[C@H]([C@@H](C)CC)NC1=O` [compound 112] stands 1 to 100 nM.
